# In patent US20220313170A1, “METHOD OF INCREASING COGNITIVE FUNCTION WITH GLUTAMATE RECEPTOR AGONIST” (priority 2019, published 2022):
# Columns and labels:
# [1] = tested on: subjects with schizophrenia; conditions: cited from earlier work
# [2] = tested on: subjects with schizophrenia; experiment: Correlation of pre-treatment resting-state EEG metrics (power law exponent, beta power) with response to poma treatment (MCCB domain scores), clinical trials NCT00845026 and NCT01052103; format: in vivo, human; conditions: subgroups of patients identified by EEG metrics (Examples 1-3)
# From the text: The power spectrum of resting state EEG signals, when viewed in the frequency domain (that is, with frequency of oscillation on the x-axis and power on the y-axis), forms roughly a straight line, when viewed on a log-log plot; see FIG.5 (from Miller et al. […] PLoS Comput Biol 5(12): e1000609)
# Mathematically, this can be expressed as log (P)=k−βlog (f), or equivalently, P αf−β1/fβ), where P=power, f=frequency, −β is the slope of the fitted line, and k is a constant. This phenomenon is known by various terms, such as a “power law” spectrum or “1/f noise”. It is often referred to as “scale invariant” or “fractal” behavior (Lowen and Teich, 2005), as the power law exponent, β, is constant regardless of the resolution at which it is calculated.
# This study used data from clinical trials NCT00845026 (N=117) and NCT01052103 (N=196), which studied male and female subjects with schizophrenia treated with poma vs. antipsychotic agent standard of care. […] We calculated only power at the stimulated frequency and, for recordings in the resting state, the power law exponent (PLE; also known as the “fractal exponent”). […] We calculated all predictive measures for each EEG electrode. […]
# [3] = humans; cited from earlier work
Structure (SMILES),"Efficacy versus placebo as determined with PANSS total scores ([1]; clinical studies, halted)",Dosage shown to be efficacious ([1]; early phase II monotherapy trial),"Cognitive function in measures of working memory, reasoning/problem solving, and attention/vigilance [2]",Oral absorption and bioavailability [3]
"CSCC[C@H](N)C(=O)N[C@@]1(C(=O)O)CS(=O)(=O)[C@H]2[C@H](C(=O)O)[C@H]21 [poma, Pomaglumetad methionil]",not significantly more efficacious than the placebo,40 mg BID,significant improvement in cognitive function,–
N[C@@]1(C(=O)O)CS(=O)(=O)[C@H]2[C@H](C(=O)O)[C@H]21 [pomaglumetad],–,–,–,low
